This is an account of results in PubChem BioAssay AID1645864 (Buhrlage Lab, Dana-Farber Cancer Institute and Novartis …, 2021).

The source made the active and inactive calls.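 Rule for the calls: active = maximal inhibition of USP17 at or above 30% in the confirmation dose-response, a value not among the printed readouts; inactive = the rest.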 Some results are limits rather than exact numbers.

The target of this assay is Ubiquitin carboxyl-terminal hydrolase 17-like protein 5 (Homo sapiens) (UniProt A8MUK1). Kind of assay: ubiquitin-specific protease 17 DUB inhibitors, concentration-effect assay, cell-free, verification of initial screening actives (AID 1645864). Particulars: purified USP17, ubiquitin-rhodamine cleavage fluorescence, 3 h.
Chain of Ubiquitin carboxyl-terminal hydrolase 17-like protein 5 (Homo sapiens) (A8MUK1 whole entry, looked up): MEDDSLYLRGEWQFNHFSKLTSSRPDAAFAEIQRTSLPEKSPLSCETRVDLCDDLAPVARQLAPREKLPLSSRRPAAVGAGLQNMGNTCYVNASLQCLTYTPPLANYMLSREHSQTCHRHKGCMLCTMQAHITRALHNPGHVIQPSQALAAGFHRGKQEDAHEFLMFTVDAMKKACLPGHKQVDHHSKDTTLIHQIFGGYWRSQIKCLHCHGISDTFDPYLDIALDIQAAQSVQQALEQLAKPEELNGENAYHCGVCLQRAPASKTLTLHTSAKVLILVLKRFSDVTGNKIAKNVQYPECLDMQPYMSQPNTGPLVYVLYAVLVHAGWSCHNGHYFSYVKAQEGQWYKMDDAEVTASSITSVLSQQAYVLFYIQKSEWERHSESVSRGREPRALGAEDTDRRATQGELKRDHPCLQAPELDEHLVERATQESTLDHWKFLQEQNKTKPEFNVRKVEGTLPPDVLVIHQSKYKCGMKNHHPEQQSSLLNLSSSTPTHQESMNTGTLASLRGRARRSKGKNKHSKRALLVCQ
`COc1ccc(OC)c(CCNC(=O)CCC2=NS(=O)(=O)c3ccc(C(F)(F)F)cc3N2)c1`: the IC50 (commonly the concentration needed to halve the response being measured) is 26.9 µM. As for `O=C1C[C@@H]2O[C@H](CNC(=O)[C@@H]3CN(CCN3C(=O)C3CCOCC3)C(=O)[C@@H]3C[C@@H](CN3Cc3ccc(F)c(F)c3)N1)[C@@H](O)[C@H]2O`, the IC50 was > 50 µM (inactive).

For `COc1ccccc1CC(=O)Nc1nc2ccccc2[nH]1`, the IC50 was 33.3 µM. As to `COc1ccc(CCn2cnc3c([nH]c4ccccc43)c2=O)cc1`, the IC50 was 2.98 µM.

For the compound `CC1=C(c2ccc(F)cc2)S(=O)(=O)NC1=NCC(=O)Nc1cccc(F)c1`, the IC50 was 34.2 µM. In the case of `O=C(CN1C(=O)C2CCCC2=Nc2ccccc21)Nc1cc(F)ccc1F` (configuration not stated) it was 13.9 µM. As to `Cc1nc(CN2CCn3c(Cn4cccn4)cnc3C2C)cs1` (configuration not stated), the IC50 was > 50 µM (inactive).

Regarding `O=C(Cc1cccnc1)Nc1ccc(N2CCN(C3CCCCC3)C2=O)nc1`, the IC50 is > 50 µM (inactive).

`O=C(NC(Cc1ccccc1)c1nc2ccccc2[nH]1)c1ccccn1` (configuration not stated): the IC50 is > 50 µM (inactive). As for `CC1=C[C@@H](C)CC[C@H]2O[C@@H](C3=C(O)C(=O)C(C)=C4O[C@](O)(C=C43)[C@@H](C)C[C@H](C)C1)[C@H](C)[C@@H](O)[C@H]2C`, the IC50 is 16.1 µM.

For `COc1ccc(CCNC(=O)CCn2c(=O)c3ccccc3n(Cc3ccc(C)cc3)c2=O)cc1OC`, the IC50 is 28.6 µM. Consider `CC1Cc2ccccc2N1C(=O)Cn1c(=O)cc(O)c2ccccc21` (configuration not stated), for which the IC50 was > 50 µM (inactive). The same measure for `CC1CCN(Cc2nnc(-c3cn(CC(=O)NC4CCCCC4)c4ccccc34)o2)CC1`: > 50 µM (inactive); for `Cc1c(-c2ccccc2)oc2c(C(=O)OCC(=O)Nc3ccccc3F)cccc2c1=O`: > 50 µM (inactive). In the case of `Cc1nn(CC(=O)NCc2ccccc2F)c2ccccc12` it was 47 µM; in that of `COc1ccc(CCNC(=O)CSc2cn(CCNC(=O)c3ccc(F)cc3)c3ccccc23)cc1OC`, 31.3 µM; in that of `CC(C)CCCCCCCCCCC(=O)N(C)[C@H](CO)C(=O)N[C@H](C)C(=O)NCC(=O)N(C)C1C(=O)N[C@@H](C)C(=O)NC(C(=O)O)Cc2ccc(O)c(c2)-c2cc1ccc2O` (some centres not stated), > 50 µM (inactive).

For `O=C(NC1CCCCC1)c1cc2c(cn1)[nH]c1ccccc12`, the IC50 is > 50 µM (inactive).

On to `CCOC(=O)c1cc2c(ccn2C)n1Cc1cccc2ccccc12`, for which the IC50 was > 50 µM (inactive). With `Cc1cc(N2CCC(NC(=O)NCc3ccc(F)cc3)C2=O)ccc1F` (configuration not stated), the IC50 is 9.01 µM. In the case of `CC(C)c1cc(Nc2cccc(F)c2)n2nc(-c3cccnc3)nc2n1` it was 7.65 µM; in that of `CC1=C(c2ccc(C)c(C)c2)S(=O)(=O)NC1=NCC(=O)NCCCc1ccccc1`, 12.5 µM. For `O=C(c1cc(-c2ccncc2)n[nH]1)N1CCC(C(=O)N2CC=C(c3ccccc3)CC2)CC1`, the IC50 is 28.1 µM. Turning to `COc1ccc(CCN2COc3c(cc(Cl)c4cccnc34)C2)cc1OC`, the IC50 is 24.8 µM. The same measure for `CC1=C(C)C(N(c2ccccc2)c2ccccc2)N(CCC(C)C)C1=O` (configuration not stated): 19.2 µM. The same measure for `Cc1ccc(Nc2nc(C(=O)NCc3ccc4c(c3)OCO4)cc3occc23)cc1Cl`: 28.1 µM.

For the compound `Cc1cc(C)c(O)c(-c2cc(C(=O)Nc3ccccc3Cl)[nH]n2)c1`, the IC50 is 1.75 µM. The same measure for `O=C(Nc1nnc2n1CCCS2)c1cccc(Cl)c1`: > 50 µM (inactive); for `COc1cccc(-c2cc(C(=O)Nc3cc(C)n(Cc4ccc(Cl)cc4)n3)no2)c1`: 4.67 µM; for `c1ccc(CN2CCN(c3nc4ccccc4n4nnnc34)CC2)cc1`: > 50 µM (inactive). For `CC(C)CCn1c(=O)c2ccccc2n2c(CCC(=O)NC3CCCCCC3)nnc12`, the IC50 was > 50 µM (inactive).

As to `CC1=C(Cn2c3cccc(=O)c-3nc3ccccc32)CCC(C)(C)C1`, the IC50 was 1.52 µM.

Consider `O=C1Nc2ccccc2C(=O)C1C(c1ccc(Cl)cc1)C1C(=O)Nc2ccccc2C1=O` (configuration not stated), for which the IC50 was 35.6 µM. The same measure for `CC1CC(=O)N(Cc2ccc([N+](=O)[O-])cc2)c2ccccc2S1` (configuration not stated): > 50 µM (inactive). In the case of `CN1C(=O)COc2cc(-c3noc(C(=O)NC4CCCCCC4)n3)ccc21` it was 39.3 µM; in that of `Cc1ccc(S(=O)(=O)Nc2ccccc2SCCS(=O)(=O)c2ccc(Cl)cc2)cc1`, > 50 µM (inactive); in that of `N#Cc1cccnc1N1CCN(C(=O)Nc2cccc3ccccc23)CC1`, 29.2 µM. `COc1cccc2cc(C(=O)Nc3ccc4c(c3)OCCO4)oc12`: the IC50 was > 50 µM (inactive).

`O=C(NCc1ccccc1Cl)c1ccc2cn[nH]c2c1`: the IC50 is > 50 µM (inactive). The same measure for `CC[C@@]1(O)C[C@H](OC2CC(N(C)C)C(OC3CC(O)C(OC4CCC(=O)C(C)O4)C(C)O3)C(C)O2)c2c(cc3c(c2O)C(=O)c2c(O)ccc(O)c2C3=O)[C@H]1C(=O)OC` (some centres not stated): 2.51 µM; for `O=C(Nc1ccc(N2CCOCC2)cc1)c1ccc(-c2ccc(N3CCCC3)nn2)cc1`: > 50 µM (inactive); for `N#Cc1c(-c2ccccc2)ccn(Cc2cccc(C(F)(F)F)c2)c1=O`: 33.8 µM. As for `O=[N+]([O-])c1ccc2c(c1)nc1n2CCN(Cc2ccco2)C1`, the IC50 was > 50 µM (inactive).

As to `COc1ccc(NC(=O)C2CCCN(S(=O)(=O)N3CCCCCC3)C2)cc1` (configuration not stated), the IC50 was 29.7 µM. In the case of `Cc1ccc(C)c(-n2c(C)cc(/C=C3/C(=N)N4C(c5ccc(F)cc5)=CSC4=NC3=O)c2C)c1` it was > 50 µM (inactive); in that of `Cc1ccc(Cc2nc(-c3ccc(=O)[nH]c3)no2)cc1`, > 50 µM (inactive).

In the case of `CC(=O)c1cccc(NC(=O)c2ccc3[nH]c4c(c3c2)CC(C)CC4)c1` (configuration not stated), the IC50 is > 50 µM (inactive). For `O=C(CN(Cc1ccc(Cl)cc1)S(=O)(=O)c1ccc(Cl)cc1)N1CCOCC1`, the IC50 is > 50 µM (inactive). In the case of `O=[N+]([O-])c1ccccc1C(c1c[nH]c2ccccc12)c1c[nH]c2ccccc12`, the IC50 was 24.6 µM. For the compound `C/C=C1/C2=CCCN3C(=O)O[C@H]([C@H]1O)[C@H]23`, the IC50 was 1.42 µM. For `Cc1ccc2nc(NC(=O)CSc3nnc(-c4ccncc4)n3C3CC3)sc2c1`, the IC50 is 3.82 µM. On to `COc1ccccc1CNC(=O)Nc1cccc2ccccc12`, for which the IC50 was 39.2 µM. The same measure for `O=C(O)CCCCCN1C(=O)CC(c2ccc(Cl)cc2)CC1=O`: 18.2 µM; for `COc1ccc(CC(=O)Nc2cccc(-c3nc4ncccc4o3)c2)cc1OC`: > 50 µM (inactive). The same measure for `O=C(Nc1ccc(-c2cn3ccccc3n2)cc1)C1C=C2C=C(Br)C=CC2OC1=O` (configuration not stated): 0.577 µM; for `COc1ncccc1CN1CCn2c(Cn3cccn3)cnc2C1C` (configuration not stated): > 50 µM (inactive). In the case of `c1cnc(-c2n[nH]c(C3CCN(C4CCNC4)CC3)n2)cn1` (configuration not stated), the IC50 is > 50 µM (inactive). As to `Cc1cccc(-c2nc3n(CC(=O)Nc4ccc(Cl)cc4)c(C)cc(=O)n3n2)c1`, the IC50 was 0.335 µM. With `COc1ccc(-c2cc3nc([C@H](C)NC(=O)Cc4ccccc4C)nn3cn2)cc1`, the IC50 was 2.38 µM. On to `Cc1ccc(-c2nc(Cn3cnc4ccccc4c3=O)cs2)cc1`, for which the IC50 is 7.32 µM. Turning to `Cn1c(SCc2ccccc2)nnc1-c1csc(-c2ccccc2)n1`, the IC50 is 39 µM.

For `COc1ccc(NC(=O)CNC(=O)c2ccc3nc(-n4cccc4)sc3c2)cc1`, the IC50 was 3.15 µM. Turning to `O=C(Nc1cccc(Cl)c1)c1ncn2c1CNS(=O)(=O)c1ccccc1-2`, the IC50 was 6.05 µM.

In the case of `Nc1c(C(=O)Nc2ccc3c(c2)OCO3)sc2nc(-c3cccnc3)ccc12`, the IC50 was 1.64 µM. On to `O=C(CSc1nnc2n1CCCCC2)Nc1ccc2[nH]c(=O)[nH]c2c1`, for which the IC50 was 12 µM.

Turning to `CCCNc1cc(-c2ccccc2)nc2nc(-c3cccnc3)nn12`, the IC50 was > 50 µM (inactive). In the case of `O=C(Nc1nc2c(ccc3ccccc32)s1)c1cccc(Br)c1` it was 2.7 µM; in that of `CCOc1ccccc1C(=O)Oc1ccc2c(C)cc(=O)oc2c1`, 26.1 µM; in that of `Cc1ccc2c(Nc3ccc(CC(=O)O)cc3)c(C(=O)N3CCCC3)cnc2n1`, > 50 µM (inactive).

Turning to `CC(C)(C)n1ncc2c(=O)n(Cc3cccc([N+](=O)[O-])c3)cnc21`, the IC50 was > 50 µM (inactive).

Take `Oc1cc(OCc2cccc(C(F)(F)F)c2)ccc1-c1ccn[nH]1`: the IC50 was 21.2 µM. The same measure for `CC(=O)c1oc2nc3c(c(-c4ccc(Cl)cc4)c2c1N)CCc1ccccc1-3`: > 50 µM (inactive). The same measure for `COc1ccccc1CNC(=O)CCCCn1c(=O)c2ccccc2n(Cc2ccccc2C#N)c1=O`: 13.1 µM. As to `CC(C)(C)C(=O)C1C2C(=O)N(c3ccc4c(c3)OCO4)C(=O)C2C2c3ccccc3C=CN12` (configuration not stated), the IC50 was > 50 µM (inactive).

For `Cc1ccc(C)c(NS(=O)(=O)c2cc(-c3cnc(C4CC4)o3)ccc2C)c1`, the IC50 was 42.7 µM. The same measure for `O=c1c(Nc2cccc(F)c2)nc2ccncc2n1Cc1ccccc1`: 12.5 µM; for `Cc1ccc(C(=O)Nc2ccc3c(c2)C(=O)N(C)c2ccccc2O3)cc1C`: > 50 µM (inactive). In the case of `Cn1cc(-c2noc(Cc3cccc(C(F)(F)F)c3)n2)ccc1=O` it was > 50 µM (inactive); in that of `COc1ccc(NC(=O)c2ccccc2OCC(=O)Nc2ccccc2C(F)(F)F)c(C)c1`, 26.9 µM; in that of `O=C1C=C(O)c2c(O)cccc2C1=O`, 11.9 µM. The same measure for `COc1cccc(NC(=O)Nc2ccc3nc4n(c(=O)c3c2)CCCC4)c1`: 9.31 µM; for `O=C(Nc1cccc2ccccc12)C1CCCN(S(=O)(=O)Cc2ccccc2)C1` (configuration not stated): 8.53 µM; for `Fc1ccc(CSc2nnc(-c3ccccn3)n2Cc2ccco2)cc1`: > 50 µM (inactive).

For `COc1ccc2[nH]c3c(c2c1)CCN1C(=O)N(c2ccccc2C(=O)NCc2ccccc2)C(=O)[C@]31C`, the IC50 was 34.5 µM. In the case of `c1ccc(CCN2CCc3nc4cccnc4cc3C2)nc1` it was > 50 µM (inactive). Turning to `Cc1ccc(NC(=O)Cc2nnc3cc(-c4nc(C)no4)ccn23)cc1`, the IC50 is 18.7 µM. In the case of `Cc1c(C(=O)NCc2cccc(Br)c2)oc2c1-c1[nH]ncc1CC2` it was 29.1 µM.
